Test results published in PubChem BioAssay (NCI).
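Tested at 5 concentrations; 48 h exposure; 96-well plates; endpoints linearly interpolated, else capped at highest concentration. Definition used: TGI = concentration required for complete inhibition of growth.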

What was measured:
Test in all cases: NCI anticancer screen, dose series, 48 h
A498 renal = test system: A498 renal
A549 NSCLC = test system: A549 NSCLC
ACHN renal = test system: ACHN renal
CAKI-1 renal = test system: CAKI-1 renal
CCRF-CEM leukemia = test system: CCRF-CEM leukemia
COLO 205 colon = test system: COLO 205 colon
DU-145 prostate = test system: DU-145 prostate
EKVX NSCLC = test system: EKVX NSCLC
HCC-2998 colon = test system: HCC-2998 colon
HCT-15 colon = test system: HCT-15 colon
HL-60(TB) leukemia = test system: HL-60(TB) leukemia
HOP-62 NSCLC = test system: HOP-62 NSCLC
HOP-92 NSCLC = test system: HOP-92 NSCLC
HS 578T breast = test system: HS 578T breast
IGROV1 ovarian = test system: IGROV1 ovarian
K-562 leukemia = test system: K-562 leukemia
KM12 colon = test system: KM12 colon
LOX IMVI melanoma = test system: LOX IMVI melanoma
M14 melanoma = test system: M14 melanoma
MALME-3M melanoma = test system: MALME-3M melanoma
MCF7 breast = test system: MCF7 breast
MDA-MB-231 breast = test system: MDA-MB-231 breast
MDA-MB-435 = test system: MDA-MB-435
MDA-N = test system: MDA-N
NCI-H226 lung = test system: NCI-H226 lung
NCI-H23 lung = test system: NCI-H23 lung
NCI-H460 lung = test system: NCI-H460 lung
NCI-H522 lung = test system: NCI-H522 lung
NCI/ADR-RES ovarian = test system: NCI/ADR-RES ovarian
OVCAR-3 ovarian = test system: OVCAR-3 ovarian
OVCAR-5 ovarian = test system: OVCAR-5 ovarian
OVCAR-8 ovarian = test system: OVCAR-8 ovarian
PC-3 prostate = test system: PC-3 prostate
RPMI-8226 leukemia = test system: RPMI-8226 leukemia
RXF 393 renal = test system: RXF 393 renal
SF-268 CNS = test system: SF-268 CNS
SF-539 CNS = test system: SF-539 CNS
SK-MEL-2 melanoma = test system: SK-MEL-2 melanoma
SK-MEL-28 melanoma = test system: SK-MEL-28 melanoma
SK-MEL-5 melanoma = test system: SK-MEL-5 melanoma
SN12C renal = test system: SN12C renal
SNB-19 CNS = test system: SNB-19 CNS
SNB-75 CNS = test system: SNB-75 CNS
SR leukemia = test system: SR leukemia
SW-620 colon = test system: SW-620 colon
T-47D breast = test system: T-47D breast
TK-10 renal = test system: TK-10 renal
U251 CNS = test system: U251 CNS
UACC-257 melanoma = test system: UACC-257 melanoma
UO-31 renal = test system: UO-31 renal

Measured: TGI

O=c1cnn(C/C=C\CO)c(=O)[nH]1
> 100 µM: all assays above
